# Measurements published in patent publication US9402839B2, “Selective targeting agents for mitochondria” (University of Pittsburgh—Of the Commonwealth System of …, priority 2006, dated 2016).
# Assays:
# MECs [1] = test: Determination of intracellular superoxide radicals (DHE oxidation, flow cytometry) in ActD-treated MECs; assay type: cell-based, mouse; conditions: 10 μM pretreatment, ActD 100 ng/mL; nearly two-fold ActD-induced increase
# Protocol: Determination of intracellular superoxide radicals Oxidation-dependent fluorogenic dye, dihydroethidium (“DHE”, Molecular Probes) was used to evaluate intracellular production of superoxide radicals. DHE is cell permeable and, in the presence of superoxide, is oxidized to fluorescent ethidium which intercalates into DNA. The fluorescence of ethidium was measured using a FACscan (BECTON-DICKINSON, Rutherford, N.J.) flow cytometer, equipped with a 488-nm argon ion laser and supplied with the Cell Quest software. Mean fluorescence intensity from 10,000 cells were acquired using a 585-nm bandpass filter (FL-2 channel).
# MECs [2] = test: ActD-induced apoptosis in MECs (PS externalization, caspase-3 activation, DNA fragmentation); assay type: cell-based, mouse
# Text: Cells that annexin V-positive and PI-negative were considered apoptotic.
# [3] = system: mouse embryonic cells (MEC); assay type: cell-based
# Protocol: Electron paramagnetic resonance (“EPR”) spectroscopy was used to monitor the cellular delivery of compounds 5a and 5b shown in FIG. 2 in mouse embryonic cells (“MEC”).
# The following conditions were used during the EPR-based analysis of the integration and reduction of nitroxide Gramicidin S-peptidyl conjugates in MECs. The MECs at a concentration of 10 million MECs per mL were incubated with 10 μM of 4-AT and compound 5a, respectively. Recovered nitroxide radicals in whole cells, mitochondria, and cytosol fractions were resuspended in phosphate buffer saline (“PBS”) in the presence and absence, respectively, of 2 μM K3Fe(CN)6.
# [4] = system: rats subjected to volume-controlled hemorrhagic shock; test: Survival of rats subjected to volume-controlled hemorrhagic shock; assay type: in vivo, rat
# Text: Surgical procedures to obtain vascular access. All study protocols using rats followed the guidelines for the use of experimental animals of the US National Institutes of Health and were approved by the Institutional Animal Care and Use Committee at the University of Pittsburgh.
# Male specific pathogen-free Sprague Dawley rats (CHARLES RIVER LABORATORIES, Wilmington, Mass.), weighing 150-250 g, were housed in a temperature-controlled environment with a 12-h light/dark cycle. The rats had free access to food and water. For experiments, rats were anesthetized with intramuscular ketamine HCl (30 mg/kg) and intraperitoneal sodium pentobarbital (35 mg/kg). Animals were kept in a supine position during the experiments. Lidocaine (0.5 ml of a 0.5% solution) was injected subcutaneously to provide local anesthesia at surgical cut-down sites. In order to secure the airway, a tracheotomy was performed and polyethylene tubing (PE 240; BECTON-DICKINSON, Sparks, Md.) was introduced into the trachea. Animals were allowed to breathe spontaneously.
# The right femoral artery was cannulated with polyethylene tubing (PE 10). This catheter was attached to a pressure transducer that allowed instantaneous measurement of mean arterial pressure (MAP) during the experiment. For experiments using the pressure-controlled hemorrhagic shock (HS) model, the right jugular vein was exposed, ligated distally, and cannulated with polyethylene tubing (PE 10) in order to withdraw blood. For experiments using the volume-controlled hemorrhagic shock (HS) model, the jugular catheter was used to infuse the resuscitation solution and the right femoral vein, which was cannulated with a silicon catheter (CHRONIC-CATH, NORFOLK MEDICAL, Skokie, Ill.), was used to withdraw blood.
# All animals were instrumented within 30 min. Heparin (500 U/kg) was administered immediately after instrumentation through the femoral vein. Animals were placed in a thermal blanket to maintain their body temperature at 37° C. The positioning of the different devices aforementioned was checked postmortem.
# Survival of rats subjected to volume-controlled hemorrhagic shock. Following surgical preparation and a 5-min stabilization period to obtain baseline readings, rats were subjected to hemorrhagic shock. Bleeding was carried out in 2 phases.
# Initially, 21 ml/kg of blood was withdrawn over 20 min. Immediately thereafter, an additional 12.5 ml/kg of blood was withdrawn over 40 min. […]
# Blood pressure was recorded continuously using a commercial strain-gauge transducer, amplifier, and monitor (S90603a, SPACELABS, Redmond, Wash.). […] Hemoglobin concentration [Hb], lactate and glucose concentration were determined using an auto-analyzer (Model ABL 725, […], Westlake, Ohio). […]
smiles,measurement,setting,value
CC(C)C[C@@H](/C=C/[C@H](Cc1ccccc1)C(=O)N1CCC[C@H]1C(=O)N[C@H](C(=O)N[C@@H](CCCNC(=O)OCc1ccccc1)C(=O)NC1CC(C)(C)N([O])C(C)(C)C1)C(C)C)NC(=O)OC(C)(C)C [XJB-5-131],intracellular superoxide generation in MECs,MECs [1],completely inhibited
same,DNA fragmentation,"MECs [2]; 10 μM, ActD 100 ng/mL",prevented DNA fragmentation
same,PS externalization (annexin V-positive cells),"MECs [2]; 10 μM, ActD 100 ng/mL",reduced the number of annexin V-positive cells
same,caspase-3 activation,"MECs [2]; 10 μM, ActD 100 ng/mL",prevented caspase-3 activation
same,anti-apoptotic protection / cytotoxicity at higher concentrations,MECs [2]; concentrations in excess of 10 μM,either less protective or exhibited cytotoxicity
same,EPR triplet signals of nitroxide radicals in MECs and in mitochondria isolated from these cells,"[3]; 10 μM, no EPR signal in the cytosolic fraction",Distinctive characteristic triplet signals of nitroxide radicals were detected
same,integration and one-electron reduction in MECs (EPR signal increase upon ferricyanide),"[3]; 10 μM, with and without K3Fe(CN)6",resulted in integration and one-electron reduction
same,concentration in the mitochondria of cultured mouse embryonic cells,[3]; after incubation with solutions of the compounds,concentrated in the mitochondria
same,rats surviving longer than 3 hours after completion of the hemorrhage protocol,[4]; 2 μmol/kg i.v.,Three of the six
same,survival versus vehicle-treated rats,"[4]; 2 μmol/kg i.v. infusion during last 20 min of hemorrhage, no resuscitation",survived significantly longer
same,rats surviving the whole 6 hour post-bleeding observation period,"[4]; 2 μmol/kg i.v., six rats",one
same,"beneficial dose, times smaller than the TEMPOL dose of previous studies",[4]; ~0.1 mg/kg versus TEMPOL 30 mg/kg bolus+30 mg/kg per h,about 300 fold
